Values after ≈ are worked out from the molar mass of the structure shown.
Assays:
Format in all cases: cell-based
Shigella sp. = assay: Gradient plate in vitro antibiotic activity (MIC), Shigella sp.; settings: read-out: Minimum Inhibitory Concentration
Description: (§1) The antibiotic activity of the cephalosporin compounds of this invention is illustrated by the data provided in the following Table of representative compounds. The values in the Table are the minimum inhibitory concentrations (MIC) for the test compounds against the indicated microorganisms. The MIC values were obtained using the gradient plate in vitro method for determining antibiotic activity.

Escherichia coli = assay: Gradient plate in vitro antibiotic activity (MIC), Escherichia coli; settings: read-out: Minimum Inhibitory Concentration
Description: (§2) The values in the Table are the minimum inhibitory concentrations (MIC) for the test compounds against the indicated microorganisms. The MIC values were obtained using the gradient plate in vitro method for determining antibiotic activity.

Klebsiella pneumoniae = assay: Gradient plate in vitro antibiotic activity (MIC), Klebsiella pneumoniae; settings: read-out: Minimum Inhibitory Concentration
Description: as §2

Aerobacter aerogenes = assay: Gradient plate in vitro antibiotic activity (MIC), Aerobacter aerogenes; settings: Klebsiella aerogenes, read-out: Minimum Inhibitory Concentration
Description: as §1

Salmonella heidelberg = assay: Gradient plate in vitro antibiotic activity (MIC), Salmonella heidelberg; settings: Salmonella enterica, read-out: Minimum Inhibitory Concentration
Description: as §2

Pseudomonas aeruginosa = assay: Gradient plate in vitro antibiotic activity (MIC), Pseudomonas aeruginosa; settings: read-out: Minimum Inhibitory Concentration
Description: as §2

Serratia marcescens = assay: Gradient plate in vitro antibiotic activity (MIC), Serratia marcescens; settings: read-out: Minimum Inhibitory Concentration
Description: as §2

[1] = system: V41 penicillin resistant Staphylococcus; assay: Gradient plate in vitro antibiotic activity (MIC), V41 penicillin resistant Staphylococcus; settings: read-out: Minimum Inhibitory Concentration
Description: as §1
(§3) 1. Test organisms V41, V32, and V84 are penicillin

[2] = system: V32 penicillin resistant Staphylococcus; assay: Gradient plate in vitro antibiotic activity (MIC), V32 penicillin resistant Staphylococcus; settings: read-out: Minimum Inhibitory Concentration
Description: as §1, §3

[3] = system: X400 methicillin resistant Staphylococcus; assay: Gradient plate in vitro antibiotic activity (MIC), X400 methicillin resistant Staphylococcus; settings: read-out: Minimum Inhibitory Concentration
Description: as §1
resistant Staphylococcus. X-400 is a methicillin
resistant Staphylococcus.

[4] = system: V84 penicillin resistant Staphylococcus; assay: Gradient plate in vitro antibiotic activity (MIC), V84 penicillin resistant Staphylococcus; settings: read-out: Minimum Inhibitory Concentration
Description: as §1, §3

| Structure (SMILES) | MIC (Shigella sp.) | MIC (Escherichia coli) | MIC (Klebsiella pneumoniae) | MIC (Aerobacter aerogenes) | MIC (Salmonella heidelberg) | MIC (Pseudomonas aeruginosa) | MIC (Serratia marcescens) | MIC [1] | MIC [2] | MIC [3] | MIC [4] |
| --- | --- | --- | --- | --- | --- | --- | --- | --- | --- | --- | --- |
| CC(=O)OCC1=C(C(=O)O)N2C(=O)C(NC(=O)C(NC(=O)c3nc4ccccc4[nH]3)c3ccccc3)C2SC1 (centres unmarked) [A] | 15 µg/mL (≈ 27.3 µM) | 26.5 µg/mL (≈ 48.2 µM) | 18.5 µg/mL (≈ 33.7 µM) | 18.3 µg/mL (≈ 33.3 µM) | 22 µg/mL (≈ 40 µM) | 25 µg/mL (≈ 45.5 µM) | 100 µg/mL (≈ 182 µM) | 4 µg/mL (≈ 7.28 µM) | 5 µg/mL (≈ 9.1 µM) | > 20 µg/mL | 0.6 µg/mL (≈ 1.09 µM) |
| Cn1nnnc1SCC1=C(C(=O)O)N2C(=O)C(NC(=O)C(NC(=O)c3nc4ccccc4[nH]3)c3ccccc3)C2SC1 (centres unmarked) [B] | 5 µg/mL (≈ 8.26 µM) | 18.5 µg/mL (≈ 30.5 µM) | 5 µg/mL (≈ 8.26 µM) | 8.5 µg/mL (≈ 14 µM) | 6.5 µg/mL (≈ 10.7 µM) | 22 µg/mL (≈ 36.3 µM) | 21.5 µg/mL (≈ 35.5 µM) | 5 µg/mL (≈ 8.26 µM) | 7 µg/mL (≈ 11.6 µM) | > 20 µg/mL | 0.7 µg/mL (≈ 1.16 µM) |
| Cn1nnnc1SCC1=C(C(=O)O)N2C(=O)C(NC(=O)C(NC(=O)c3nc4ccccc4[nH]3)c3ccc(O)cc3)C2SC1 (centres unmarked) [C] | 5.5 µg/mL (≈ 8.85 µM) | 7.5 µg/mL (≈ 12.1 µM) | 0.9 µg/mL (≈ 1.45 µM) | 13 µg/mL (≈ 20.9 µM) | 8 µg/mL (≈ 12.9 µM) | 10.5 µg/mL (≈ 16.9 µM) | 20.7 µg/mL (≈ 33.3 µM) | 0.9 µg/mL (≈ 1.45 µM) | 0.9 µg/mL (≈ 1.45 µM) | 60 µg/mL (≈ 96.5 µM) | 0.8 µg/mL (≈ 1.29 µM) |
| Cn1nnnc1SCC1=C(C(=O)O)N2C(=O)C(NC(=O)C(NC(=O)c3nc4ccccc4[nH]3)c3cccs3)C2SC1 (centres unmarked) [D] | 4 µg/mL (≈ 6.54 µM) | 7 µg/mL (≈ 11.4 µM) | 0.6 µg/mL (≈ 0.981 µM) | 10 µg/mL (≈ 16.3 µM) | 7.5 µg/mL (≈ 12.3 µM) | 14.8 µg/mL (≈ 24.2 µM) | 14.8 µg/mL (≈ 24.2 µM) | 0.6 µg/mL (≈ 0.981 µM) | 0.6 µg/mL (≈ 0.981 µM) | 19.5 µg/mL (≈ 31.9 µM) | 0.5 µg/mL (≈ 0.817 µM) |
| Cc1nnc(SCC2=C(C(=O)O)N3C(=O)C(NC(=O)C(NC(=O)c4nc5ccccc5[nH]4)c4ccc(O)cc4)C3SC2)s1 (centres unmarked) [E] | 10 µg/mL (≈ 15.7 µM) | 16 µg/mL (≈ 25.1 µM) | 4.5 µg/mL (≈ 7.06 µM) | 21.5 µg/mL (≈ 33.7 µM) | 16 µg/mL (≈ 25.1 µM) | 18.5 µg/mL (≈ 29 µM) | 70 µg/mL (≈ 110 µM) | 4 µg/mL (≈ 6.27 µM) | 5 µg/mL (≈ 7.84 µM) | 100 µg/mL (≈ 157 µM) | 1 µg/mL (≈ 1.57 µM) |
| NC(=O)OCC1=C(C(=O)O)N2C(=O)C(NC(=O)C(NC(=O)c3nc4ccccc4[nH]3)c3ccc(O)cc3)C2SC1 (centres unmarked) [F] | 19.5 µg/mL (≈ 34.4 µM) | 55 µg/mL (≈ 97.1 µM) | 10 µg/mL (≈ 17.7 µM) | 55 µg/mL (≈ 97.1 µM) | 19.5 µg/mL (≈ 34.4 µM) | 19.5 µg/mL (≈ 34.4 µM) | > 200 µg/mL | 0.9 µg/mL (≈ 1.59 µM) | 0.9 µg/mL (≈ 1.59 µM) | 120 µg/mL (≈ 212 µM) | 0.8 µg/mL (≈ 1.41 µM) |
| Cn1c(SCC2=C(C(=O)O)N3C(=O)C(NC(=O)C(NC(=O)c4nc5ccccc5[nH]4)c4ccc(O)cc4)C3SC2)nnc(O)c1=O (centres unmarked) [G] | 6.7 µg/mL (≈ 10.1 µM) | 11 µg/mL (≈ 16.5 µM) | 1 µg/mL (≈ 1.5 µM) | 19.2 µg/mL (≈ 28.9 µM) | 8.5 µg/mL (≈ 12.8 µM) | 60 µg/mL (≈ 90.3 µM) | 41 µg/mL (≈ 61.7 µM) | 0.8 µg/mL (≈ 1.2 µM) | 1.8 µg/mL (≈ 2.71 µM) | > 200 µg/mL | 0.8 µg/mL (≈ 1.2 µM) |

Source: US4048161A, “7-[α-(Benzimidazol-2-ylcarbonylamino)-arylacetamido]ephalosporins” (Eli Lilly and Company, priority 1976, dated 1977)
